Results reported in US10570117B2, “Phenylimidazole compound” (Otsuka Pharmaceutical Factory, Inc., priority 2015, dated 2020).
Values after ≈ are worked out from the molar mass of the structure shown. Where two headings read alike, the source gives them in different places.

Tests used:
[1] = Solubility in gastric juice or intestinal juice model fluid (precipitation method using DMSO); assay type: physicochemical; conditions: room temperature
Method: Solubility in Gastric Juice or Intestinal Juice Model Fluid
Measurement was performed by a precipitation method using DMSO. Specifically, each of the dimethyl sulfoxide (DMSO) solutions of the compounds was individually added to 1st fluid for Disintegration Test of Japanese Pharmacopoeia (pH: 1.2) or 2nd fluid for Disintegration Test of Japanese Pharmacopoeia (pH: 6.8), and the mixtures were stirred by shaking at room temperature for 24 hours. Subsequently, insoluble substances in each mixture were removed by filtration, and the UV absorption of each filtrate was measured. The obtained values were individually applied to the calibration curves of the compounds prepared in advance to calculate the concentrations of the compounds dissolved (μg/mL).

[2] = pH 1.2, simulated gastric fluid, kinetic from dmso stock, 1st fluid for Disintegration Test of Japanese Pharmacopoeia (pH: 1.2), read-out: Solubility (μg/mL) 1st fluid
[3] = pH 6.8, kinetic from dmso stock, 2nd fluid for Disintegration Test of Japanese Pharmacopoeia (pH: 6.8), read-out: Solubility (μg/mL) 2nd fluid
[4] = 2nd fluid for Disintegration Test of Japanese Pharmacopoeia (pH: 6.8), 24 hours

Row | solubility at 24 h [1, 2] [µg/mL] | solubility at 24 h [1, 3] [µg/mL] | melting point | SMILES | also measured
1 | 9.9 (≈ 21.6 µM) | – | – | COc1cc(O[C@H](C)c2ccc(C(F)(F)F)nc2)ccc1-c1cnc(-c2ccc(F)nc2)[nH]1 [Example 146] | Solubility (μg/mL) 2nd fluid [1, 4]: 1.2 µg/mL (≈ 2.62 µM)
2 | 12.4 (≈ 27 µM) | 3.6 (≈ 7.85 µM) | – | COc1cc(O[C@@H](C)c2ccc(C(F)(F)F)nc2)ccc1-c1cnc(-c2ccc(F)nc2)[nH]1 [Example 147] | –
3 | < 0.3 | 5.3 (≈ 11.6 µM) | – | COc1cc(O[C@H](C)c2ccc(C(F)(F)F)cc2)ccc1-c1cnc(-c2ccc(F)nc2)[nH]1 [Example 148] | –
4 | – | – | 185 to 187 °C | COc1cc(OCc2cc(C(F)(F)F)ccn2)ccc1-c1[nH]c(-c2ccc(F)nc2)nc1Cl [Example 173] | –
5 | – | – | 176 to 178 °C | COc1cc(OCc2cc(C(F)(F)F)ccn2)ccc1-c1[nH]c(-c2ccc(Cl)nc2)nc1Cl [Example 174] | –
6 | – | – | 202 to 204 °C | COc1cc(-c2[nH]c(-c3ccc(F)nc3)nc2Cl)ccc1OCc1ccc(C(F)(F)F)nc1 [Example 177] | –
7 | 23.2 (≈ 50.6 µM) | < 0.3 | – | COc1cc(OCc2cccc(C#N)n2)ccc1-c1[nH]c(C2CCC(F)(F)CC2)nc1Cl [Example 186] | –
8 | – | – | 232 to 234 °C | COc1cc(OCc2cnc(Cl)cn2)ccc1-c1nc(-c2ccc(Cl)nc2)[nH]c1Cl [Example 215] | –
9 | – | – | 231 to 233 °C (dec.) | COc1cc(OCc2cnc(Cl)cn2)ccc1-c1nc(-c2ccc(F)nc2)[nH]c1Cl [Example 217] | –
10 | – | – | 222 to 224 °C (dec.) | COc1cc(OCc2ccc(C(F)(F)F)cn2)ccc1-c1nc(-c2ccc(F)cn2)[nH]c1Cl [Example 231] | –
11 | – | – | 197 to 199 °C (dec.) | COc1cc(OCc2ccc(C(F)(F)F)cn2)ccc1-c1nc(-c2ccc(Cl)cn2)[nH]c1Cl [Example 232] | –
12 | – | – | 195 to 199 °C | COc1cc(OCc2cccnc2C(F)(F)F)ccc1-c1[nH]c(-c2ccc(Cl)nc2)nc1Cl [Example 243] | –
13 | – | – | 173 to 177 °C | COc1cc(OCc2ccc(F)cc2F)ccc1-c1[nH]c(-c2ccc(Cl)nc2)nc1Cl [Example 244] | –
14 | – | – | 174 to 179 °C | COc1cc(OCc2ncc(Br)cc2F)ccc1-c1[nH]c(-c2ccc(Cl)nc2)nc1Br [Example 250] | –
15 | – | – | 189 to 191 °C | COc1cc(OCc2ncc(Br)cc2F)ccc1-c1[nH]c(-c2ccc(Cl)nc2)nc1Cl [Example 251] | –
16 | – | – | 133 to 153 °C | COc1cc(OCc2cnccc2C(F)(F)F)ccc1-c1[nH]c(-c2ccc(F)nc2)nc1Cl [Example 257] | –
17 | – | – | 179 to 181 °C | COc1cc(OCc2cc(C(F)(F)F)ccn2)ccc1-c1[nH]c(-c2ccc(F)nc2)nc1Br [Example 269] | –

The next lines start with the compound.

Row | SMILES | solubility at 24 h [1, 2] [µg/mL] | solubility at 24 h [1, 3] [µg/mL] | melting point | also measured
18 | COc1cc(-c2cnc(C3CC(F)(F)C3)[nH]2)ccc1OCc1ccc(C(F)(F)F)nc1 [Example 2] | > 88 | 25.1 (≈ 57.1 µM) | – | –
19 | COc1cc(-c2cnc(C3CCCC(F)(F)C3)[nH]2)ccc1OCc1ccc(C(F)(F)F)cn1 (stereo not shown) [Example 5] | 90.1 (≈ 193 µM) | 1.1 (≈ 2.35 µM) | – | –
20 | COc1cc(OCc2ccc(C(F)(F)F)cn2)ccc1-c1cnc(C2CC(F)(F)C2)[nH]1 [Example 9] | 87.7 (≈ 200 µM) | 1.8 (≈ 4.1 µM) | – | –
21 | COc1cc(-c2cnc(C3CCC(F)(F)C3)[nH]2)ccc1OCc1ccc(C(F)(F)F)cn1 (stereo not shown) [Example 10] | 89.5 (≈ 197 µM) | 17.3 (≈ 38.2 µM) | – | –
22 | COc1cc(-c2cnc(C3CC(F)(F)C3)[nH]2)ccc1OCc1ccc(C(F)(F)F)cn1 [Example 11] | 80.1 (≈ 182 µM) | 5.4 (≈ 12.3 µM) | – | –
23 | COc1cc(-c2nc(-c3ccc(Cl)nc3)[nH]c2C)ccc1OCc1ccc(C(F)(F)F)nc1 [Example 28] | – | – | 209 to 211 °C | –
24 | COc1cc(OCc2ccc(C#N)cn2)ccc1-c1c[nH]c(-c2ccc(Cl)nc2)n1 [Example 35] | – | – | 233 to 237 °C (dec.) | –
25 | COc1cc(OCc2cnccn2)ccc1-c1c[nH]c(-c2ccc(Cl)nc2)n1 [Example 50] | – | – | 210 to 213 °C (dec.) | –
26 | COc1cc(-c2c[nH]c(C3CCCCC3)n2)ccc1OCc1ccc(C(F)(F)F)nc1 [Example 51] | 90.2 (≈ 209 µM) | 9 (≈ 20.9 µM) | – | –
27 | COc1cc(-c2c[nH]c(-c3ccc(Cl)nc3)n2)ccc1OCc1ccc(C(F)(F)F)nc1 [Example 52] | – | – | 179 to 181 °C | –
28 | COc1cc(OCc2ccc(C(F)(F)F)nc2)ccc1-c1c[nH]c(-c2ccc(Cl)nc2)n1 [Example 54] | – | – | 218 to 220 °C | –
29 | COc1cc(OCc2ccc(C(F)(F)F)cn2)ccc1-c1c[nH]c(-c2ccc(SC(C)(C)C)cn2)n1 [Example 59] | – | – | 159 to 160 °C | –
30 | COc1ccc(-c2nc(-c3ccc(OCc4ccc(C(F)(F)F)cn4)c(OC)c3)c[nH]2)cn1 [Example 70] | – | – | 217 to 218 °C (dec.) | –
31 | CCOc1ccc(-c2nc(-c3ccc(OCc4ccc(Br)cc4F)cc3OC)c[nH]2)cn1 [Example 84] | – | – | 181 to 184 °C | –
32 | COc1cc(OCc2ccc(Br)cc2F)ccc1-c1c[nH]c(-c2ccccn2)n1 [Example 90] | – | – | 219 to 222 °C | –
33 | COc1cc(OCc2ccc(Br)cc2F)ccc1-c1c[nH]c(-c2ccc(Cl)nc2)n1 [Example 92] | – | – | 220 to 222 °C | –
34 | COc1cc(-c2c[nH]c(-c3ccc(C(F)(F)F)nc3)n2)ccc1OCc1ccc(Br)cc1F [Example 95] | – | – | 175 to 177 °C | –
35 | COc1cc(OCc2ccc(C(F)(F)F)cn2)ccc1-c1c[nH]c(-c2ccc(C(F)(F)F)nc2)n1 [Example 96] | – | – | 209 to 211 °C | –
36 | COc1cc(OCc2ccc(Br)cc2F)ccc1-c1c[nH]c(-c2ccc(C(F)(F)F)nc2)n1 [Example 99] | – | – | 183 to 185 °C | –
37 | COc1cc(OCc2ccc(F)cc2F)ccc1-c1cnc(-c2ccc(Cl)nc2)[nH]1 [Example 101] | – | – | 213 to 218 °C | –
38 | COc1cc(-c2cnc(-c3ccc(F)nc3)[nH]2)ccc1O [Example 110, 4-[2-(6-fluoropyridin-3-yl)-1H-imidazol-5-yl]-2-methoxyphenol] | > 57 | > 57 | – | –
39 | COc1cc(OCc2cccc(C(F)(F)F)n2)ccc1-c1cnc(-c2ccc(F)nc2)[nH]1 [Example 113] | 21.1 (≈ 47.5 µM) | 0.5 (≈ 1.13 µM) | – | –
40 | COc1cc(-c2c[nH]c(-c3ccc(F)nc3)n2)ccc1OCc1ccc(C(F)(F)F)cn1 [Example 125] | 23.1 (≈ 52 µM) | 0.5 (≈ 1.13 µM) | – | –
41 | COc1cc(OC(C)c2cccc(C(F)(F)F)n2)ccc1-c1cnc(-c2ccc(F)nc2)[nH]1 (stereo not shown) [Example 127] | 17.1 (≈ 37.3 µM) | < 0.3 | – | –
42 | COc1cc(OC(C)c2ncc(C(F)(F)F)cc2F)ccc1-c1cnc(-c2ccc(F)nc2)[nH]1 (stereo not shown) [Example 129] | 13.6 (≈ 28.5 µM) | < 0.3 | – | –
43 | COc1cc(OC(C)c2ccc(C(F)(F)F)nc2)ccc1-c1cnc(-c2ccc(F)nc2)[nH]1 (stereo not shown) [Example 130] | – | – | 72 to 105 °C | –
44 | COc1cc(OCc2ccc(Cl)cc2F)ccc1-c1cnc(-c2ccc(F)nc2)[nH]1 [Example 143] | – | – | 178 to 180 °C | –
45 | COc1cc(OCc2ccc(Br)cc2F)ccc1-c1cnc(-c2ccc(F)nc2)[nH]1 [Example 144] | – | – | 177 to 180 °C | –
46 | COc1cc(O[C@@H](C)c2ccc(C(F)(F)F)cc2)ccc1-c1cnc(-c2ccc(F)nc2)[nH]1 [Example 145] | < 0.3 | 4 (≈ 8.74 µM) | – | –
47 | COc1cc(O[C@H](C)c2ccc(C(F)(F)F)nc2)ccc1-c1cnc(-c2ccc(F)nc2)[nH]1 [Example 149] | – | – | – | Solubility (μg/mL) 1st fluid ([1]; 1st fluid for Disintegration Test of Japanese Pharmacopoeia (pH: 1.2), 24 hours): 19.6 µg/mL (≈ 42.8 µM); Solubility (μg/mL) 2nd fluid [1, 4]: 3.9 µg/mL (≈ 8.51 µM)
